From ChEMBL document CHEMBL3352640, “Carbonic anhydrase inhibitors: design, synthesis, and biological evaluation of novel sulfonyl semicarbazide derivatives” (ACS Med Chem Lett, 2014)
pKi: −log10 of the molar value.

What follows are compounds tested against Carbonic anhydrase 9 (Homo sapiens, UniProt Q16790) (assay: Inhibition of human carbonic anhydrase 9 preincubated for 15 mins by stopped flow CO2 hydration assay).

Compound | pKi
NS(=O)(=O)c1ccc(NC(=O)NNS(=O)(=O)c2ccccc2)cc1 | 7.13
NS(=O)(=O)c1ccc(NC(=O)NNS(=O)(=O)c2ccc(F)cc2)cc1 | 7.60
NS(=O)(=O)c1ccc(NC(=O)NNS(=O)(=O)c2ccc(Cl)cc2)cc1 | 7.64
NS(=O)(=O)c1ccc(NC(=O)NNS(=O)(=O)c2ccc(Br)cc2)cc1 | 7.52
Cc1ccc(S(=O)(=O)NNC(=O)Nc2ccc(S(N)(=O)=O)cc2)cc1 | 7.62
NS(=O)(=O)c1ccc(NC(=O)NNS(=O)(=O)c2ccc([N+](=O)[O-])cc2)cc1 | 7.69
NS(=O)(=O)c1ccc(NC(=O)NNS(=O)(=O)c2ccc(Cl)c([N+](=O)[O-])c2)cc1 | 7.41
COc1ccc(S(=O)(=O)NNC(=O)Nc2ccc(S(N)(=O)=O)cc2)cc1 | 7.09
CC(=O)Nc1ccc(S(=O)(=O)NNC(=O)Nc2ccc(S(N)(=O)=O)cc2)cc1 | 7.09
